In PubChem BioAssay AID1963959 (Molecular Pharmacology Branch, DTP, NCI, 2024):
pIC50: −log10 of the molar value.

Test system: T-47D spheroids with HUVEC/MSC, viability
Assay: Anticancer human tumor T-47D cell line growth inhibition [PI3K];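 further: spheroids exposed to agents for seven days before reading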;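 on viability, T/C: percent of DMSO vehicle control luminescence so 100% = untreated growth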
Details: for pIC50: curve of first compound; for viability, T/C: stronger effect = lower value
Method in brief: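 High-throughput combination screen: PI3K inhibitors crossed with targeted small molecules on complex spheroids of tumor cells, HUVEC and MSCs at 37 degrees C, 5% CO2. Top concentration was at or near clinical Cmax (otherwise 10 microM), with half-log decrements.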

[1] = second compound 0.00316 µM, first compound 0.0316 µM
[2] = second compound 0.00316 µM, first compound 0.1 µM
[3] = second compound 0.01 µM, first compound 0.0316 µM
[4] = second compound 0.01 µM, first compound 0.1 µM
[5] = second compound 0.0316 µM, first compound 0.0316 µM
[6] = second compound 0.0316 µM, first compound 0.1 µM
[7] = second compound 0.1 µM, first compound 0.0316 µM
[8] = second compound 0.1 µM, first compound 0.1 µM
[9] = second compound 0.316 µM, first compound 0.0316 µM
[10] = second compound 0.316 µM, first compound 0.1 µM
[11] = second compound 1 µM, first compound 0.0316 µM
[12] = second compound 1 µM, first compound 0.1 µM

CC(=O)c1c(C)c2cnc(Nc3ccc(N4CCNCC4)cn3)nc2n(C2CCCC2)c1=O + COc1c(OCCCN2CCOCC2)ccc2c3n(c(=NC(=O)c4cnc(N)nc4)nc12)CCN3
pIC50 (second compound 0.00316 µM): < 7.00 | pIC50 (second compound 0.01 µM): < 7.00 | pIC50 (second compound 0.0316 µM): 7.40 | pIC50 (second compound 0.1 µM): > 9.50 | pIC50 (second compound 0.316 µM): > 9.50 | pIC50 (second compound 1 µM): > 9.50 | viability, T/C (second compound 0.00316 µM, first compound 0.000316 µM): 120% | viability, T/C (second compound 0.00316 µM, first compound 0.001 µM): 118% | viability, T/C (second compound 0.00316 µM, first compound 0.00316 µM): 95.3% | viability, T/C (second compound 0.00316 µM, first compound 0.01 µM): 95.6% | viability, T/C [1]: 80.5% | viability, T/C [2]: 85% | viability, T/C (second compound 0.01 µM, first compound 0.000316 µM): 89.3% | viability, T/C (second compound 0.01 µM, first compound 0.001 µM): 104% | viability, T/C (second compound 0.01 µM, first compound 0.00316 µM): 95.5% | viability, T/C (second compound 0.01 µM, first compound 0.01 µM): 83.4% | viability, T/C [3]: 84.3% | viability, T/C [4]: 74.2% | viability, T/C (second compound 0.0316 µM, first compound 0.000316 µM): 71.3% | viability, T/C (second compound 0.0316 µM, first compound 0.001 µM): 64.8% | viability, T/C (second compound 0.0316 µM, first compound 0.00316 µM): 74.2% | viability, T/C (second compound 0.0316 µM, first compound 0.01 µM): 68.3% | viability, T/C [5]: 51.8% | viability, T/C [6]: 42.7% | viability, T/C (second compound 0.1 µM, first compound 0.000316 µM): 35.3% | viability, T/C (second compound 0.1 µM, first compound 0.001 µM): 42.8% | viability, T/C (second compound 0.1 µM, first compound 0.00316 µM): 34% | viability, T/C (second compound 0.1 µM, first compound 0.01 µM): 32.9% | viability, T/C [7]: 26.6% | viability, T/C [8]: 27.1% | viability, T/C (second compound 0.316 µM, first compound 0.000316 µM): 14.5% | viability, T/C (second compound 0.316 µM, first compound 0.001 µM): 17.1% | viability, T/C (second compound 0.316 µM, first compound 0.00316 µM): 19.7% | viability, T/C (second compound 0.316 µM, first compound 0.01 µM): 13.2% | viability, T/C [9]: 15% | viability, T/C [10]: 13.6% | viability, T/C (second compound 1 µM, first compound 0.000316 µM): 5.84% | viability, T/C (second compound 1 µM, first compound 0.001 µM): 7.18% | viability, T/C (second compound 1 µM, first compound 0.00316 µM): 7.6% | viability, T/C (second compound 1 µM, first compound 0.01 µM): 5.71% | viability, T/C [11]: 7.91% | viability, T/C [12]: 6.26%

CNC(=O)c1ccc(N2C(=S)N(c3ccc(C#N)c(C(F)(F)F)c3)C(=O)C2(C)C)cc1F + COc1c(OCCCN2CCOCC2)ccc2c3n(c(=NC(=O)c4cnc(N)nc4)nc12)CCN3
pIC50 (second compound 0.00316 µM): < 5.00 | pIC50 (second compound 0.01 µM): < 5.00 | pIC50 (second compound 0.0316 µM): < 5.00 | pIC50 (second compound 0.1 µM): > 7.50 | pIC50 (second compound 0.316 µM): > 7.50 | pIC50 (second compound 1 µM): > 7.50 | viability, T/C [1]: 122% | viability, T/C [2]: 84.3% | viability, T/C (second compound 0.00316 µM, first compound 0.316 µM): 87.8% | viability, T/C (second compound 0.00316 µM, first compound 1 µM): 81.1% | viability, T/C (second compound 0.00316 µM, first compound 3.16 µM): 98.8% | viability, T/C (second compound 0.00316 µM, first compound 10 µM): 86.5% | viability, T/C [3]: 102% | viability, T/C [4]: 90.3% | viability, T/C (second compound 0.01 µM, first compound 0.316 µM): 105% | viability, T/C (second compound 0.01 µM, first compound 1 µM): 104% | viability, T/C (second compound 0.01 µM, first compound 3.16 µM): 81.3% | viability, T/C (second compound 0.01 µM, first compound 10 µM): 91.2% | viability, T/C [5]: 72.3% | viability, T/C [6]: 80% | viability, T/C (second compound 0.0316 µM, first compound 0.316 µM): 72.1% | viability, T/C (second compound 0.0316 µM, first compound 1 µM): 69.1% | viability, T/C (second compound 0.0316 µM, first compound 3.16 µM): 64.4% | viability, T/C (second compound 0.0316 µM, first compound 10 µM): 62% | viability, T/C [7]: 37.6% | viability, T/C [8]: 44.8% | viability, T/C (second compound 0.1 µM, first compound 0.316 µM): 40% | viability, T/C (second compound 0.1 µM, first compound 1 µM): 46% | viability, T/C (second compound 0.1 µM, first compound 3.16 µM): 37.2% | viability, T/C (second compound 0.1 µM, first compound 10 µM): 43.8% | viability, T/C [9]: 18.9% | viability, T/C [10]: 21.8% | viability, T/C (second compound 0.316 µM, first compound 0.316 µM): 16.7% | viability, T/C (second compound 0.316 µM, first compound 1 µM): 19.6% | viability, T/C (second compound 0.316 µM, first compound 3.16 µM): 18.1% | viability, T/C (second compound 0.316 µM, first compound 10 µM): 14.9% | viability, T/C [11]: 5.78% | viability, T/C [12]: 6.91% | viability, T/C (second compound 1 µM, first compound 0.316 µM): 7.72% | viability, T/C (second compound 1 µM, first compound 1 µM): 3.81% | viability, T/C (second compound 1 µM, first compound 3.16 µM): 3.1% | viability, T/C (second compound 1 µM, first compound 10 µM): 4.67%

Cn1cnc2c(F)c(Nc3ccc(Br)cc3Cl)c(C(=O)NOCCO)cc21 + COc1c(OCCCN2CCOCC2)ccc2c3n(c(=NC(=O)c4cnc(N)nc4)nc12)CCN3
pIC50 (second compound 0.00316 µM): < 5.52 | pIC50 (second compound 0.01 µM): < 5.52 | pIC50 (second compound 0.0316 µM): < 5.52 | pIC50 (second compound 0.1 µM): > 8.02 | pIC50 (second compound 0.316 µM): > 8.02 | pIC50 (second compound 1 µM): > 8.02 | viability, T/C (second compound 0.00316 µM, first compound 0.00949 µM): 97.1% | viability, T/C (second compound 0.00316 µM, first compound 0.03 µM): 88.8% | viability, T/C (second compound 0.00316 µM, first compound 0.0949 µM): 88.3% | viability, T/C (second compound 0.00316 µM, first compound 0.3 µM): 94.8% | viability, T/C (second compound 0.00316 µM, first compound 0.949 µM): 92.5% | viability, T/C (second compound 0.00316 µM, first compound 3 µM): 76.6% | viability, T/C (second compound 0.01 µM, first compound 0.00949 µM): 89.5% | viability, T/C (second compound 0.01 µM, first compound 0.03 µM): 77.5% | viability, T/C (second compound 0.01 µM, first compound 0.0949 µM): 102% | viability, T/C (second compound 0.01 µM, first compound 0.3 µM): 66% | viability, T/C (second compound 0.01 µM, first compound 0.949 µM): 85.6% | viability, T/C (second compound 0.01 µM, first compound 3 µM): 92.9% | viability, T/C (second compound 0.0316 µM, first compound 0.00949 µM): 64% | viability, T/C (second compound 0.0316 µM, first compound 0.03 µM): 51.7% | viability, T/C (second compound 0.0316 µM, first compound 0.0949 µM): 64.6% | viability, T/C (second compound 0.0316 µM, first compound 0.3 µM): 57.8% | viability, T/C (second compound 0.0316 µM, first compound 0.949 µM): 71.9% | viability, T/C (second compound 0.0316 µM, first compound 3 µM): 67.7% | viability, T/C (second compound 0.1 µM, first compound 0.00949 µM): 41.4% | viability, T/C (second compound 0.1 µM, first compound 0.03 µM): 34.3% | viability, T/C (second compound 0.1 µM, first compound 0.0949 µM): 32.9% | viability, T/C (second compound 0.1 µM, first compound 0.3 µM): 38.7% | viability, T/C (second compound 0.1 µM, first compound 0.949 µM): 41.5% | viability, T/C (second compound 0.1 µM, first compound 3 µM): 35.4% | viability, T/C (second compound 0.316 µM, first compound 0.00949 µM): 12.8% | viability, T/C (second compound 0.316 µM, first compound 0.03 µM): 16.8% | viability, T/C (second compound 0.316 µM, first compound 0.0949 µM): 16.7% | viability, T/C (second compound 0.316 µM, first compound 0.3 µM): 13.7% | viability, T/C (second compound 0.316 µM, first compound 0.949 µM): 20.4% | viability, T/C (second compound 0.316 µM, first compound 3 µM): 14.4% | viability, T/C (second compound 1 µM, first compound 0.00949 µM): 6.16% | viability, T/C (second compound 1 µM, first compound 0.03 µM): 4.64% | viability, T/C (second compound 1 µM, first compound 0.0949 µM): 7.54% | viability, T/C (second compound 1 µM, first compound 0.3 µM): 7.14% | viability, T/C (second compound 1 µM, first compound 0.949 µM): 7.29% | viability, T/C (second compound 1 µM, first compound 3 µM): 6.05%
